Where two headings read alike, the source gives them in different places.
Legend:
[1] = Cytotoxicity evaluation, CellTiter-Blue Cell Viability Assay; format: cell-based; settings: human, Zluc cells (Huh-7-derived HCV replicon cell line)
Protocol: (§1) For cytotoxicity evaluation, Zluc cells were treated with compound as described above, and cell viability was monitored using the CellTiter-Blue Cell Viability Assay (Promega) by adding 20 μL of the assay solution to each well. The plates were then incubated at 37° C./5% CO2 for at least 3 hours. Fluorescence was detected in plates using excitation and emission wavelengths of 560 and 590 nm, respectively, in a Victor^3 V 1420 multilabel counter (Perkin Elmer) and CC50 values were determined using Microsoft Excel and XLfit 4.1 software.

[2] = test system: HCV genotype 1b replicon; test: HCV replicon assay (HCV-REPL LUC), luciferase reporter; format: cell-based, hepatitis C virus
Protocol: Huh-7-derived cell line (Zluc) that harbors an HCV genotype 1b replicon and a luciferase reporter gene was grown in Dulbecco's Modified Eagle Medium (DMEM) supplemented with 10% fetal bovine serum, 2 mM GlutaMAX, 1% MEM nonessential amino acids, 100 IU/mL penicillin, 100 μg/mL streptomycin, and 0.5 mg/mL Geneticin® (G418). For dose response testing the cells were seeded in 96-well plates at 7.5×10^3 cells per well in a volume of 50 μl, and incubated at 37° C./5% CO2. Drug solutions were made up freshly in Huh-7 media as 2× stocks. Ten additional 5-fold dilutions were prepared from these stocks in DMEM without G418. At least three hours after Zluc cells were seeded, drug treatment was initiated by adding 50 μL of drug dilutions to the plates in duplicate. […] Cells were then incubated at 37° C./5% CO2. Alternatively compounds were tested at two concentrations (10 nM and 100 nM). […] After 72 hours of incubation, the inhibition of HCV replication was measured by quantification of photons emitted after mono-oxygenation of 5′-fluoroluciferin to oxyfluoroluciferin by firefly luciferase. For this, media was removed from the plates via gentle tapping. Fifty microliters of ONE-glo luciferase assay reagent was added to each well. The plates were shaken gently for 3 min at room temperature and luminescence was measured on a Victor^3 V 1420 multilabel counter (Perkin Elmer) with a 1 second read time using a 700 nm cut-off filter. The EC50 values were calculated from dose response curves from the resulting best-fit equations determined by Microsoft Excel and XLfit 4.1 software.
Compounds presented in the table below were assayed according to the replicon assay described above.

[3] = test system: Zluc cells (Huh-7-derived cell line); test: Cytotoxicity evaluation, CellTiter-Blue Cell Viability Assay; format: cell-based; settings: read-out: HCV Replicon CC50
Protocol: as §1

[4] = Hepatitis C virus, Huh-7, 72 h, read-out: HCV Replicon EC50, Zluc cells (Huh-7, HCV genotype 1b replicon, luciferase), 72 hours incubation

Compound | CC50 [1] | EC50 [2, 4] | CC50 [3] | EC50 ([2]; read-out: HCV Replicon EC50, Zluc cells (Huh-7, HCV genotype 1b replicon, luciferase), 72 hours incubation)
CCOC(=O)[C@H](Cc1ccccc1)NP(=O)(OCC(=O)OC(C)C)OC[C@H]1O[C@@H](n2cnc3c(OC)nc(N)nc32)[C@](C)(O)[C@@H]1O (mixture of isomers) [Compound 2] | ≥ 100 µM | 0.5 to 1 µM |  | 
CCOC(=O)[C@@H](NP(=O)(OCCC(=O)OC(C)(C)C)OC[C@H]1O[C@@H](n2cnc3c(OC)nc(N)nc32)[C@](C)(O)[C@@H]1O)C(C)C (mixture of isomers) [Compound 6] | ≥ 100 µM | 1 to 5 µM |  | 
CCOC(=O)COP(=O)(N[C@H](C(=O)OC)C(C)C)OC[C@H]1O[C@@H](n2cnc3c(OCC)nc(N)nc32)[C@](C)(O)[C@@H]1O (mixture of isomers) [Compound 7] | ≥ 100 µM | 1 to 5 µM |  | 
CCOC(=O)COP(=O)(N[C@@H](CCSC)C(=O)OCC)OC[C@H]1O[C@@H](n2cnc3c(OC)nc(N)nc32)[C@](C)(O)[C@@H]1O (mixture of isomers) [Compound 9] | ≥ 100 µM | 1 to 5 µM |  | 
COc1nc(N)nc2c1ncn2[C@@H]1O[C@H](COP(=O)(N[C@@H](CC(C)C)C(=O)OC(C)C)OCC(=O)NCc2ccc(F)cc2)[C@@H](O)[C@@]1(C)O (mixture of isomers) [Compound 10] | ≥ 100 µM | 1 to 5 µM |  | 
CCOC(=O)COP(=O)(N[C@@H](CC(C)C)C(=O)OC(C)C)OC[C@H]1O[C@@H](n2cnc3c(OC)nc(N)nc32)[C@](C)(F)[C@@H]1O (mixture of isomers) [Compound 12] | ≥ 100 µM | 0.5 to 1 µM |  | 
CCOC(=O)COP(=O)(N[C@@H](CC(C)C)C(=O)OC(C)C)OC[C@H]1O[C@@H](n2cnc3c(OC)nc(N)nc32)[C@](C)(O)[C@@H]1O (single isomer, unassigned) [Compound 11a] | ≥ 100 µM | 1 to 5 µM |  | 
CCOC(=O)COP(=O)(N[C@@H](CC(C)C)C(=O)OC(C)C)OC[C@H]1O[C@@H](n2cnc3c(OC)nc(N)nc32)[C@](C)(O)[C@@H]1O (single isomer, unassigned) [Compound 11b] |  |  | 50 to 99 µM | < 0.5 µM
COc1nc(N)nc2c1ncn2[C@@H]1O[C@H](COP(=O)(N[C@@H](C)C(=O)OC(C)C)OCC(=O)OC(C)C)[C@@H](O)[C@@]1(C)O (stereo partly shown) [Compound 1] | ≥ 100 µM | 1 to 5 µM |  | 
CCOC(=O)COP(=O)(N[C@H](Cc1ccccc1)C(=O)OC(C)C)OC[C@H]1O[C@@H](n2cnc3c(OC)nc(N)nc32)[C@](C)(O)[C@@H]1O (stereo partly shown) [Compound 3] | ≥ 100 µM | 5 to 10 µM |  | 
COc1nc(N)nc2c1ncn2[C@@H]1O[C@H](COP(=O)(N[C@@H](CC(C)C)C(=O)OC(C)C)OC(C)C(=O)OCc2ccccc2)[C@@H](O)[C@@]1(C)O (stereo partly shown) [Compound 4] | 50 to 99 µM | 0.5 to 1 µM |  | 
COc1nc(N)nc2c1ncn2[C@@H]1O[C@H](COP(=O)(N[C@@H](CC(C)C)C(=O)OC(C)C)OCCCC(=O)NCc2ccc(F)cc2)[C@@H](O)[C@@]1(C)O (stereo partly shown) [Compound 5] | ≥ 100 µM | 5 to 10 µM |  | 
CCOC(=O)COP(=O)(NC(C(=O)OCC)c1ccccc1)OC[C@H]1O[C@@H](n2cnc3c(OC)nc(N)nc32)[C@](C)(O)[C@@H]1O (stereo partly shown) [Compound 8] | ≥ 100 µM | 5 to 10 µM |  | 
CCOC(=O)COP(=O)(N[C@@H](CC(C)C)C(=O)OC(C)C)OC[C@H]1O[C@@H](n2cnc3c(OC)nc(N)nc32)[C@](C)(O)[C@@H]1O (stereo partly shown) [Compound 11] | ≥ 100 µM | < 0.5 µM |  | 

From patent publication US8951985B2, “Compounds and pharmaceutical compositions for the treatment of viral infections” (Idenix Pharmaceuticals, Inc., priority 2011, dated 2015)
